Measurements published in patent publication US20250051391A1, “PEPTIDE INHIBITORS AND METHODS FOR INHIBITING PROTEIN AGGREGATION IN NEURONS AND NEURODEGENERATIVE DISEASES” (THE GOVERNING COUNCIL OF THE UNIVERSITY OF TORONTO, priority 2021, published 2025).
Ends that are not written are not given here.

Assays:
Flag-CHMP2B = molecular target: T1, Flag-CHMP2B (Homo sapiens, UniProt Q9UQN3); test: Flag co-immunoprecipitation of GFP-peptides with Flag-CHMP2B; assay type: binding; settings: GFP-tagged peptides in HEK293T cells
T1 construct: expressed in transfected cells; host or cells: HEK293T
T1 sequence (Q9UQN3 whole entry): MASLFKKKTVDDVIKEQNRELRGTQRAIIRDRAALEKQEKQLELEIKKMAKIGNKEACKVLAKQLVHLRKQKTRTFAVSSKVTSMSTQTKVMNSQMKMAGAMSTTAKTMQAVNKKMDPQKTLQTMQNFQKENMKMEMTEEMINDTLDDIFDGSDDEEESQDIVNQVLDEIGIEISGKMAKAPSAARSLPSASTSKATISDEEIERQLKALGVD
Method: (§1) HEK293T cells were co-transfected with Flag-tagged target protein, HA-tagged source protein, and GFP-tagged peptide or GFP. Cells were lysed 48 h after transfections with radioimmune precipitation assay buffer (50 mM Tris-HCl pH7.4, 1% Nonidet P-40, 150 mM NaCl, 1 mM EDTA, 10 mM Na3VO4, 10 mM sodium pyrophosphate, 25 mM NaF, 1× protease inhibitor mixture (Sigma)) for 30 min at 4° C. and coimmunoprecipitated with Flag beads (Clontech). The resulting immunocomplexes were analyzed by immunoblot using the appropriate antibodies. Protein samples were separated using 4-20% Mini-PROTEAN Tris-glycine gels (Bio-Rad) transferred to PVDF membranes and blocked in 5% milk containing PBS-Tween-20 (0.1%) for 1 h. PVDF membranes were then incubated with specified primary antibodies followed by incubation with horseradish peroxidase-conjugated secondary antibodies (Santa Cruz Biotechnology) and detected using enhanced chemiluminescence (GE Healthcare).

[1] = test system: HEK293 cells overexpressing WT or A53T a-syn; test: Cell Titer-Glo cell viability assay in a-syn expressing cells; assay type: cell-based, human; settings: for cell viability / cytoprotective effect: HEK293 cells overexpressing WT or A53T a-syn, with or without MG132, expressed GFP-peptide or protein
Method: Oligonucleotides encoding the specific peptides were synthesized and individually cloned into the pLJM1 nGFP lentiviral vector. Cells were infected with individual constructs, and cell viability was assessed using Cell Titer-Glo Luminescent assay (Promega) at 72 h post infection.
Cells were trypsinized from subconfluent cultures as described earlier, suspended in culture media, and then seeded into triplicate wells of a 96-well plate (100 μl well/1) at a density of 1.5×10^4 cells per well at standard culture conditions of 5% CO2 in air at 37° C. Cells were infected with lentivirus expressing peptide at an MOI of 5 for 72 h or transfected with plasmid for 72 h. Cell Titer-Glo reagent was added to each well (30 μL), according to the manufacturer's protocol and […].

[2] = test system: SNCA triplication fibroblasts; test: SNCA triplication fibroblasts from a PD patient transduced with AAV peptides; assay type: cell-based, human
Method: HEK293T cells, tet-off split luciferase a-syn cells, tet-off parent cells and SH-SY5Y cell lines were maintained in DMEM (ATCC) supplemented with 10% FBS and 1% pen/strep/glutamine, and the appropriate selection antibiotics when required. tet-off split luciferase a-syn cells and tet-off parent cells were kept with doxycycline at 1 ng/mL for inhibition of gene expression. SNCA triplication fibroblasts were obtained from NINDS (National Institute of Neurological Disorders and Stroke) and maintained in DMEM supplemented with 10% FBS and 1% pen/strep/glutamine. HA antibodies were obtained from Santa Cruz (7392) and Flag antibodies were purchased from Sigma (A8592). GFP antibodies were purchased from Abcam (ab290).
The Lysosome Intracellular Activity Assay kit was purchased from Abcam and used per manufacturer's instructions (ab234622). […] For HEK293 cells, cells were re-suspended in PBS containing DMSO or Leupeptin and analyzed by FACS. […]
After fixation, cells were permeabilized with 0.2% Triton X-100 for 15 min, washed 3 times with PBS and then incubated with blocking solution (1% BSA, 22.52 mg/mL glycine, 0.1% Tween-20 in PBS) for 1 h. […] Following another 3 PBS washes, nuclei were counterstained with DAPI (ThermoFisher) and then coverslips were mounted on slides using fluorescence mounting medium (DAKO) and sealed using clear nail varnish.

WT a-syn oligomers = test: Split luciferase a-syn oligomer/aggregation assay; assay type: cell-based, human; settings: cells stably expressing split luciferase WT a-syn constructs; GFP-peptide plasmids
Method: tet-off cells stably expressing split luciferase a-syn constructs were trypsinized from subconfluent culture and seeded in a 96-well plate at a density of 15,000 cells per well. Cells were incubated overnight at 37° C. in 5% CO2. […] After 6 h of incubation, 20 μL of cell medium was transferred to a black flat-bottomed 96-well plate. 50 μL of Working solution (Pierce Gaussia-Firefly Luciferase Dual Assay Kit, Thermo Scientific #16181) was added into each well containing cell medium. Immediately after adding the reagent, samples were read using a luminometer with a 480 nm filter.

a-syn-CHMP2B interaction = molecular target: T2, a-syn-CHMP2B interaction (Homo sapiens, UniProt Q9UQN3); test: Co-immunoprecipitation: disruption of CHMP2B-A53T a-syn interaction; assay type: cell-based; settings: HEK293 cells; Flag-CHMP2B, HA-tagged A53T a-syn, GFP-tagged peptides
T2 construct: expressed in transfected cells; host or cells: HEK293T
T2 sequence (Q9UQN3 whole entry): as above
Method: as §1

A53T a-syn = test: a-syn protein levels by immunoblot in HEK293 cells; assay type: cell-based, human; settings: HEK293 cells expressing A53T a-syn
Method: Infected or transfected cells were scraped from 6-well dishes and lysed with lysis buffer (50 mM Tris-HCl pH7.4, 1% Nonidet P-40, 150 mM NaCl, 1 mM EDTA, 1× protease inhibitor mixture (Sigma)) for 30 min at 4° C. The insoluble pellet was removed following a 10,000 rpm spin for 5 minutes at 4° C. Lysates were analyzed by SDS-PAGE/immunoblot using 4-20% Mini-PROTEAN Tris-glycine gels (Bio-Rad) transferred to PVDF membranes and blocked in 5% milk containing PBS-Tween-20 (0.1%) for 1 h. PVDF membranes were then incubated with specified primary antibodies followed by incubation with horseradish peroxidase-conjugated secondary antibodies (Santa Cruz Biotechnology) and detected using enhanced chemiluminescence (GE Healthcare).

DEEIERQLKALG [PDpep1.3]
interaction with Flag-CHMP2B (co-immunoprecipitation) (Flag-CHMP2B): interacted with Flag-CHMP2B | interaction with Flag-CHMP2B (co-immunoprecipitation) (Flag-CHMP2B; listed as Pdpep1.3): binds to CHMP2B | cell viability / cytoprotective effect [1]: most prominent effects on cell survival | effect on cell viability under p62 knockdown ([1]; HEK293 cells stably expressing p62 shRNA): not significantly affected | cytoprotective effect under shRNA knockdown of CHMP2B, VPS4A and/or VPS4B ([1]; cells stably expressing shRNAs): prevented by CHMP2B knockdown, but not by knockdown of VPS4A and/or VPS4B | lysosomal activity (lysosomal flux assay) [2]: increased lysosomal activity | a-syn fluorescence ([2]; RFP-tagged peptides, vs Scramble1.3): reduced a-syn fluorescence | a-syn oligomers measured by luciferase activity (WT a-syn oligomers): most prominent effects | disruption of a-syn-CHMP2B interaction (co-immunoprecipitation) (a-syn-CHMP2B interaction): most prominent disruption | a-syn protein levels by immunoblot (A53T a-syn): reduction in a-syn levels

IPIQLKA [PDpep1, top hit of all screens; maps to CHMP2B residues 203-209]
interaction with Flag-CHMP2B (co-immunoprecipitation) (Flag-CHMP2B): interacted with Flag-CHMP2B | cell viability / cytoprotective effect [1]: cytoprotective effects | a-syn oligomers measured by luciferase activity (WT a-syn oligomers): reduce WT a-syn oligomers | disruption of a-syn-CHMP2B interaction (co-immunoprecipitation) (a-syn-CHMP2B interaction): disrupted the a-syn-CHMP2B interaction | a-syn protein levels by immunoblot (A53T a-syn): reduction in a-syn levels
